Assay results taken from PubChem BioAssay (NCI).
Several values for one entry are separate records, joined by “and”; a condition that tells them apart may be missing. Equal entries are not always repeated.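 Values below derive from 48-hour exposures of cells grown in 96-well plates, with endpoints linearly interpolated between the two concentrations bracketing the appropriate inhibition level. GI50: concentration for 50% inhibition of growth. TGI: concentration producing complete growth inhibition.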

Experiments:
Test in all cases: DTP human tumour cell line panel, 48 h
[1] = system: UACC-257 melanoma
[2] = system: K-562 leukemia
[3] = system: PC-3 prostate
[4] = system: BT-549 breast
[5] = system: UO-31 renal
[6] = system: A498 renal
[7] = system: OVCAR-4 ovarian
[8] = system: IGROV1 ovarian
[9] = system: DLD-1 colon
[10] = system: KM20L2 colon

Row | SMILES | GI50 [1] [µM] | TGI [1] | GI50 [2] [µM] | TGI [2] | GI50 [3] [µM] | TGI [3] [µM] | GI50 [4] [µM] | TGI [4] [µM] | GI50 [5] [µM] | TGI [5] [µM] | GI50 [6] [µM] | TGI [6] | GI50 [7] [µM] | TGI [7] | GI50 [8] [µM] | TGI [8] | GI50 [9] [µM] | TGI [9] | GI50 [10] [µM] | TGI [10]
1 | CC1SC2(CCCCC2)N(NC(=O)c2[nH]c3ccc(F)cc3c2-c2ccccc2)C1=O (stereo not given) | 90.9 | > 100 µM | 35.4 | > 100 µM | 41.2 | > 100 | > 100 | > 100 | > 100 | > 100 | > 100 | > 100 µM | 41.6 | > 100 µM | 16 | 97.3 µM | – | – | – | –
2 | N#CC1(C#N)C2C=CC(C3CCC=C32)C1(C#N)C#N (stereo not given) | – | > 10 µM | – | > 10 µM | – | > 10 | – | > 10 | – | > 5.88 | – | > 10 µM | – | > 10 µM | – | > 10 µM | – | – | – | –
3 | COC(=O)Nc1nc2ccc(Sc3ccc(NC(=O)Nc4cc(C(F)(F)F)ccc4F)cc3)cc2[nH]1 | 4.63 | 25 µM | 0.739 | 5.89 µM | 3.38 | 11.1 | 7.86 | 24.2 | 5.9 | 19.8 | 2.71 | 10.7 µM | 3.64 | 10.7 µM | 3.52 | 11.1 µM | – | – | – | –
4 | Cc1cc2c(cc1Cl)SC1=NN(C)C(c3ccccc3O)N1S2(=O)=O (stereo not given) | > 100 | > 100 µM | > 100 | > 100 µM | > 100 | > 100 | 95.2 | > 100 | 53.7 | > 100 | > 100 | > 100 µM | 51.5 | > 100 µM | 77.8 | > 100 µM | – | – | – | –
5 | C#Cc1cccc(Nc2ncnc3ccc(-c4cncc(NS(C)(=O)=O)c4)cc23)c1 | 3.7 | 16.2 µM | 3.79 | 19.5 µM | 2.21 | 9.95 | 1.07 | 4.55 | 1.53 | 14.5 | 0.372 | 2.04 µM | 3.59 | 75.9 µM | 0.309 | 1.68 µM | – | – | – | –
6 | CCCCCCCCCCCCCCCC(=O)N[C@H]1CCc2cc(OC)c(OC)c(OC)c2-c2ccc(SC)c(=O)cc21 | 0.699 | 13.1 µM and 26.4 µM | 0.709 | 11.1 µM and 14.5 µM | – | – | – | – | – | 18.4 | 2.27 | 3.64 µM and 5.35 µM | 8.65 | 80 µM and > 100 µM | – | 39 µM and 10.9 µM | 0.709 | 10.6 µM and 12.4 µM | 1.59 | 0.344 µM and 3.4 µM
7 | CCN(CC)CCOc1ccc(C2=C(c3ccccc3)CCc3cc(OC)ccc32)cc1 | 1.81 | 3.6 µM | 2.8 | 15.5 µM | 7.66 | > 51.1 | 4.17 | 15.2 | 1.86 | 4.13 | 4.23 | 9.44 µM | 3.54 | 17.2 µM | 1.8 | 4.39 µM | – | – | – | –
8 | CCN1CC2(C)CC[C@@H](OC)C34[C@@H]2[C@H](OC(C)=O)C2(OCO[C@@]25C[C@H](OC)C2C[C@]3(O)[C@@H]5[C@H]2O)[C@H]14 | – | > 100 µM | – | – | – | – | – | – | – | > 100 | – | – | – | > 100 µM | – | – | – | > 100 µM | – | > 100 µM
9 | O=C1/C(=C/c2ccccc2)CN(C(=O)Oc2ccc([N+](=O)[O-])cc2)C/C1=C\c1ccccc1 | 6.29 | 8.79 µM | 1.79 | 5.33 µM | – | – | – | – | – | – | – | – | 1.77 | 7.87 µM and 4.15 µM | – | – | 1.2 | 4.83 µM and 3.45 µM | 3.9 | 8.2 µM
10 | COc1ccccc1NC(=O)C(=O)C1C(=O)Nc2ccccc2S1=O (stereo not given) | – | > 100 µM | – | > 100 µM | – | – | – | – | – | > 100 | – | > 100 µM | – | > 100 µM | – | > 100 µM | – | > 100 µM | – | > 100 µM
11 | C[C@]12CC[C@@H]3c4ccc(O)cc4CC[C@H]3[C@@H]1CC[C@@H]2NS(=O)(=O)c1ccc(-c2ccccc2)cc1 | 4.26 | 32.6 µM | 3.48 | > 100 µM | 3.18 | 48.9 | 2.99 | 11.7 | 3.56 | > 100 | 1.96 | 9.13 µM | 2.43 | 19 µM | 6.66 | > 100 µM | – | – | – | –
12 | COc1cc(C2c3cc4c(cc3[C@@H](Nc3cccc(O)c3)C3COC(=O)[C@H]23)OCO4)cc(OC)c1O (stereo not given in full) | 0.925 | 16.9 µM | 0.802 | 22.2 µM | – | 15.4 | – | 6.7 | 0.779 | 7.4 | 0.86 | 5.9 µM | – | 37.6 µM | – | 30.4 µM | – | 40.9 µM | – | 17.6 µM
